# Data from US8148365B2 (priority 2006, dated 2012).
# Structures can show the parent of a compound that is named as a salt.
# Target: α7-subtype of nicotinic receptors (Rattus norvegicus, UniProt Q05941)
# Test: biochemical
# Type: binding
# Sequence of α7-subtype of nicotinic receptors (Q05941 23-502): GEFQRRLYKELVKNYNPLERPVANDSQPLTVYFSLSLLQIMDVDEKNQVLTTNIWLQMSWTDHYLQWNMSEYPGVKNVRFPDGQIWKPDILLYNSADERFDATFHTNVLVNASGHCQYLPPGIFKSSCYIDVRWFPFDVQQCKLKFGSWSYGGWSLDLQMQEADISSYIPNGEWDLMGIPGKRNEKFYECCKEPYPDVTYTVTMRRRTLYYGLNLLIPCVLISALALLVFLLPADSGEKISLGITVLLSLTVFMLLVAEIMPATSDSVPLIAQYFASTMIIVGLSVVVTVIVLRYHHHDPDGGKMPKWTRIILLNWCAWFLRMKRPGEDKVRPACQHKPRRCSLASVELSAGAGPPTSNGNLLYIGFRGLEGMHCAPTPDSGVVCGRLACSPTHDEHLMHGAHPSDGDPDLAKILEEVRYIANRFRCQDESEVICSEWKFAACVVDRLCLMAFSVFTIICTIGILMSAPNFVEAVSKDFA
smiles,measurement,value
"O=C(Nc1cnc(N2CCN3CCC2CC3)nc1)c1ccccc1 [Compound 1, N-[2-(1,4-Diaza-bicyclo[3.2.2]non-4-yl)-pyrimidin-5-yl]-benzamide hydrochloric acid salt]",IC50,< 100 nM
